{"source": "patent US20140249172A1", "about": "(3B Pharmaceuticals, Inc., priority 2012, published 2014)", "key": {"[1]": {"assay": "Blood levels of free naltrexone and free 6-beta-naltrexol following intranasal administration", "assay_type": "in vivo, human", "details": "for Blood Level 6-beta-Naltrexol-free / Naltrexone-free blood level: individual patients 1-8"}, "[2]": {"details": "cited from earlier work"}, "[3]": {"assay": "Stability of Naltrexone HCl aqueous solution: potency/purity by USP <621> HPLC"}, "[4]": {"details": "0.5 mg/day oral daily for 4 weeks; 42 IBS patients; cited from earlier work"}, "[5]": {"details": "oral, 0.4 mg or 1.0 mg; 90 patients; cited from earlier work"}, "[6]": {"details": "oral 0.002 mg/day with methadone; one patient; cited from earlier work"}, "[7]": {"details": "cited from earlier work", "remark": "listed apart in the source"}, "[8]": {"details": "4.5 mg/day for 12 weeks; cited from earlier work"}, "[9]": {"details": "in vivo, po; cited from earlier work"}}, "note": "Several values for one entry are separate records, joined by “and”; a condition that tells them apart may be missing. Equal values may be shown once. Where a name gives a salt, the structure may show the parent alone."}
{"smiles": "Oc1ccc2c3c1O[C@H]1[C@H](O)CC[C@@]4(O)[C@@H](C2)N(CC2CC2)CC[C@]314", "note": "[6-beta-Naltrexol, 6-beta-naltrexol]", "values": [{"measurement": "Blood Level 6-beta-Naltrexol-free, Avg.", "setting": "[1]; average of 8 subjects, 15 min", "value": 0.138, "unit": "ng/mL"}, {"measurement": "Blood Level 6-beta-Naltrexol-free, Avg.", "setting": "[1]; average of 8 subjects, 30 min", "value": 0.900, "unit": "ng/mL"}, {"measurement": "Blood Level 6-beta-Naltrexol-free, Avg.", "setting": "[1]; average of 8 subjects, 60 min", "value": 1.588, "unit": "ng/mL"}, {"measurement": "Blood Level 6-beta-Naltrexol-free, Avg.", "setting": "[1]; average of 8 subjects, 120 min", "value": 2.438, "unit": "ng/mL"}, {"measurement": "Blood Level 6-beta-Naltrexol-free", "setting": "[1]; 15 min after intranasal 1 mL of Example 1 composition", "value": "0 ng/mL (7×) and 1.1 ng/mL"}, {"measurement": "Blood Level 6-beta-Naltrexol-free", "setting": "[1]; 30 min", "value": "0 ng/mL (3×) and 1 ng/mL (2×) and 1.5 ng/mL and 1.9 ng/mL and 1.8 ng/mL"}, {"measurement": "Blood Level 6-beta-Naltrexol-free", "setting": "[1]; 60 min", "value": "1.1 ng/mL and 1.9 ng/mL and 0 ng/mL (2×) and 1.2 ng/mL and 1.6 ng/mL and 2.9 ng/mL and 4 ng/mL"}, {"measurement": "Blood Level 6-beta-Naltrexol-free", "setting": "[1]; 120 min", "value": "2.1 ng/mL (2×) and 2.7 ng/mL and 2 ng/mL and 1.8 ng/mL and 1 ng/mL and 3.5 ng/mL and 4.3 ng/mL"}]}
{"smiles": "O=C1CC[C@@]2(O)[C@H]3Cc4ccc(O)c5c4[C@@]2(CCN3CC2CC2)[C@H]1O5", "note": "[Naltrexone HCl, Naltrexone hydrochloride]", "values": [{"measurement": "solubility in water", "setting": "[2]", "value": "about 100 mg/mL"}, {"measurement": "Potency/Purity", "setting": "[3]; Stability Test A, 2.00 mg/mL in sterile water, room temperature, ambient light, day 5", "value": 99.89, "unit": "%"}, {"measurement": "Potency/Purity", "setting": "[3]; Stability Test A, day 14", "value": 104.12, "unit": "%"}, {"measurement": "Potency/Purity", "setting": "[3]; Stability Test A, day 31", "value": 95.94, "unit": "%"}, {"measurement": "Potency/Purity", "setting": "[3]; Stability Test A, day 62", "value": 107.00, "unit": "%"}, {"measurement": "Potency/Purity", "setting": "[3]; Stability Test A, day 90", "value": 107.09, "unit": "%"}, {"measurement": "Potency/Purity", "setting": "[3]; Stability Test B, 2.00 mg/mL in sterile water, room temperature, ambient light, day 6", "value": 102.04, "unit": "%"}, {"measurement": "Potency/Purity", "setting": "[3]; Stability Test B, day 15", "value": 102.11, "unit": "%"}, {"measurement": "Potency/Purity", "setting": "[3]; Stability Test B, day 33", "value": 101.05, "unit": "%"}, {"measurement": "Potency/Purity", "setting": "[3]; Stability Test B, day 61", "value": 98.49, "unit": "%"}, {"measurement": "Potency/Purity", "setting": "[3]; Stability Test B, day 90", "value": 99.24, "unit": "%"}, {"measurement": "Potency/Purity", "setting": "[3]; Stability Test B, day 121", "value": 98.70, "unit": "%"}, {"measurement": "Potency/Purity", "setting": "[3]; Stability Test B, day 152", "value": 98.56, "unit": "%"}, {"measurement": "Potency/Purity", "setting": "[3]; Stability Test B, day 180", "value": 100.44, "unit": "%"}]}
{"smiles": "O=C1CC[C@@]2(O)[C@H]3Cc4ccc(O)c5c4[C@@]2(CCN3CC2CC2)[C@H]1O5", "note": "[Naltrexone, naltrexone]", "values": [{"measurement": "patients with improved global assessment", "setting": "[4]", "value": 76, "unit": "%"}, {"measurement": "analgesic effect compared with placebo", "setting": "[5]", "value": "significant analgesic effects"}, {"measurement": "pain relief", "setting": "[6]", "value": "improved pain relief"}, {"measurement": "solubility in water (in words)", "setting": "[2]; in the form of a salt", "value": "freely soluble"}, {"measurement": "oral bioavailability", "setting": "[7]; oral administration, significant first pass metabolism", "value": "up to 40%"}, {"measurement": "time to peak plasma concentration", "setting": "[7]; single oral dose", "value": "1 to 2", "unit": "h"}, {"measurement": "CDAI scores, quality of life indicators, remission rates, inflammatory markers in serum", "setting": "[8]", "value": "Statistically significant improvements"}, {"measurement": "concentration at 15 min", "setting": "[1]; both sexes, human, in vivo, 2 mg, average of 8 subjects, 15 min after intranasal administration, read-out: Naltrexone-free blood level, Avg.", "value": 3.52, "unit": "ng/mL"}, {"measurement": "concentration at 30 min", "setting": "[1]; both sexes, human, in vivo, 2 mg, average of 8 subjects, 30 min, read-out: Naltrexone-free blood level, Avg.", "value": 3.66, "unit": "ng/mL"}, {"measurement": "concentration at 60 min", "setting": "[1]; both sexes, human, in vivo, 2 mg, average of 8 subjects, 60 min, read-out: Naltrexone-free blood level, Avg.", "value": 3.24, "unit": "ng/mL"}, {"measurement": "concentration at 120 min", "setting": "[1]; both sexes, human, in vivo, 2 mg, average of 8 subjects, 120 min, read-out: Naltrexone-free blood level, Avg.", "value": 1.94, "unit": "ng/mL"}, {"measurement": "Naltrexone-free blood level", "setting": "[1]; 15 min after intranasal 1 mL of Example 1 composition (2 mg/mL)", "value": "5.2 ng/mL and 1.4 ng/mL and 4.7 ng/mL and 4.6 ng/mL (2×) and 1.6 ng/mL and 2.1 ng/mL and 4 ng/mL"}, {"measurement": "Naltrexone-free blood level", "setting": "[1]; 30 min after intranasal 1 mL of Example 1 composition", "value": "5.1 ng/mL and 1.7 ng/mL and 4.7 ng/mL and 3.8 ng/mL and 2.3 ng/mL and 5.5 ng/mL and 2.8 ng/mL and 3.4 ng/mL"}, {"measurement": "Naltrexone-free blood level", "setting": "[1]; 60 min after intranasal 1 mL of Example 1 composition", "value": "4.6 ng/mL and 1.8 ng/mL (2×) and 4.5 ng/mL (2×) and 3.2 ng/mL and 2.6 ng/mL and 2.9 ng/mL"}, {"measurement": "Naltrexone-free blood level", "setting": "[1]; 120 min after intranasal 1 mL of Example 1 composition", "value": "2.8 ng/mL and 1.1 ng/mL and 2.9 ng/mL and 2.1 ng/mL (2×) and 1.3 ng/mL and 1.4 ng/mL and 1.8 ng/mL"}, {"measurement": "reduction of fibromyalgia symptoms over placebo", "setting": "[9]", "value": "greater than 30%"}]}
